Reference: patent EP0184861A1, “Derivatives of the 3-mercapto-2-oxo-1-pyrrolidinacetic acid, process for their preparation and pharmaceutical compositions containing them” (PROTER S.p.A., priority 1984, dated 1986)

Tests used:
4% mucin suspension = assay: mucolithic activity "in vitro" with a 4% mucin suspension (viscosity reduction); type: biochemical; conditions: molar concentration 0,012 M
Excerpt: The 3-mercapto-2-oxo-1-pyrrolidinyl acetic acid (V) and its derivatives are endowed with interesting phamacological properties; particularly they are endowed with a relevant mucolithic, expectorant and anti-cough activity and moreover show a very low toxicity.

[1] = system: fluid of the respiratory tract; assay: expectorant activity: fluorescein elimination in the fluid of the respiratory tract; type: in vivo; conditions: in comparison to the controls; dose 1 mM/kg/os
[2] = acute toxicity in the mouse; conditions: in vivo, male and female mouse
Excerpt: (§1) Thanks to their pharmacological properties and to the absence of toxicity, the compounds of formula I and their possible pharmaceutically acceptable salts may be used as drugs in the treatment of diseases of the respiratory tract.

[3] = acute toxicity in the rat; conditions: in vivo, male and female rat
Excerpt: as §1

[4] = tested after a suitable hydrolysis of the thioester

Structure (SMILES)	viscosity reduction (4% mucin suspension)	increases of escretion of the colouring matter [1]	LD50 ([2]; ip)	LD50 ([2]; oral route)	LD50 ([3]; ip)	LD50 ([3]; oral route)	viscosity reduction (4% mucin suspension; [4])
CC(=O)N[C@@H](CS)C(=O)O [N-acetyl-L-cysteine, reference compound]	12.69%	29.63%	–	–	–	–	–
O=C(O)CN1CCC(S)C1=O (stereo not drawn) [V, 3-mercapto-2-oxo-1-pyrrolidinyl acetic acid]	20.95%	52.92%	> 2000 mg/kg	> 3000 mg/kg	> 1500 mg/kg	> 5000 mg/kg	–
O=C(O)CN1CCC(SC(=O)c2cccs2)C1=O (stereo not drawn) [VI, 3-(2-thenoylthio)-2-oxo-1-pyrrolidinyl acetic acid]	–	54.26%	> 2000 mg/kg	> 3000 mg/kg	> 1500 mg/kg	> 5000 mg/kg	18.22%
O=C(O)CN1CCC(SC(=O)c2ccccc2)C1=O (stereo not drawn) [VII, 3-benzoylthio-2-oxo-l-pyrrolidinyl acetic acid]	–	–	–	–	–	–	16.13%
